In patent US20230364419A1, “USE OF E[…] ENHANCE THE DELIVERY OF PHARMACEUTICAL AGENTS AND OTHER […] THE SURFACE MUCOSA AND WALL OF THE URETER AND RENAL PELVIS, AND INTO THE RENAL PARENCHYMA” (priority 2022, published 2023):
“Also recorded” adds a separate entry of the source.

Experiments:
[1] = Porcine ureteral EMDA proof-of-concept study: methylene blue infused through the ureteral catheter with or without current; format: in vivo, Yorkshire pigs; settings: for microscopic penetration of methylene blue into the ureteral wall (frozen section / histopathology): 20 min, infusion 5 ml/min
Source text: Cystoscopy is used to place a 0.035 in. guidewire into the ureter and up into the renal pelvis. The cystoscope is removed and the EMDA delivery catheter is advanced over the 0.035-inch super-stiff guidewire into the ureter up to the level of the ureteropelvic junction (i.e., not into the renal pelvis). A fluoroscopic image is obtained to confirm the correct position of the catheter in the ureter with the proximal tip just inside the renal pelvis. The 0.035 in. guidewire is removed and the silver wire is passed into the EMDA catheter. The circumference of the tip of silver wire (connected to positive electrode of EMDA generator) is larger than the exit hole in the distal tip of the EMDA catheter and thus its passage stops at the catheter’s tip and occludes the end-hole, thereby preventing any flow of instilled fluid from the tip of the catheter. A dispersing electrode (negative) is placed on the flank area. The EMDA is then activated and the fluid containing the intended medication is instilled at 5 ml/min via a drug infusion pump for 20 minutes.
An electrical current of 10 mA is used to achieve a current density of less than 0.5 mA/cm^2. This value was obtained based on prior work in other areas with regard to the safety and efficacy of EMDA. The ureteral surface was multiplied [20 cm (length)×(circumference≈1 cm) ≈20 cm^2] by 0.5 mA/cm^2. A pulsed or direct current can be used during EMDA.
As proof of concept, a porcine study was performed (IACUC approved protocol: 21-131). A charged molecule, methylene blue, was instilled which is suitable for EMDA because of its net positive charge, small molecular size, and strong blue color. Via the EMDA catheter, a pulsed electrical current of 10 mA was applied for 20 minutes during instillation of the methylene blue solution The pigs were then euthanized and both ureters were harvested. Visually, the difference in the color density in the experimental (EMDA ureter) and control ureter (without EMDA) was apparent.
Two Yorkshire pigs were placed under general anesthesia. Cystoscopy was used to place a 0.035 in. super-stiff™ guidewire into each ureter. A prefabricated ureteral catheter with equidistant (5 mm) fenestrations in three rows was advanced into each ureter. A silver wire was then passed into each ureteral catheter; the circumference of the silver wire was larger than the terminal opening in the catheter such that its passage stopped at the catheter’s tip, thereby preventing any flow of instilled fluid from the tip of the catheter. Methylene blue, a heterocyclic aromatic dye with a net positive charge, was infused through each catheter at a rate of 5 ml/min. In the experimental ureter, a positive pulsed electrical current of 10 mA was applied using a Physionizer® EDMA device. […]

[2] = Methylene blue infusion into the renal pelvis with or without EMDA activation; format: in vivo
Method: In another example, cystoscopy was used to place a 0.035 in. guidewire into the ureter and pass it up into the renal pelvis. The cystoscope is removed and a 5 to 15 Fr pigtail catheter is advanced over the guidewire; the guidewire is removed. A retrograde pyelogram is performed and the fluid is then drained from the renal pelvis and measured in order to obtain the volume of the renal pelvis. The guidewire is replaced and the pigtail catheter is removed and the EMDA delivery catheter is advanced over the guidewire into the ureter. A fluoroscopic image is obtained to confirm the correct position of the catheter with the proximal tip inside the renal pelvis. The guidewire is removed and the catheter assumes its nonintubated “C” shape along its proximal end; the silver wire is passed into the EMDA catheter (alternatively a pre-assembled catheter will be deployed via a preplaced ureteral access sheath) following the “C” shape of the distal end of the catheter.
For renal pelvis EMDA, an electrical current of 4 mA (using a dedicated EMDA generator) is used in the C-shape catheter to achieve a current density of less than 0.5 mA/cm^2. This value is obtained based on prior work in the bladder with regard to the safety and efficacy of EMDA; the collecting system surface (8 cm^2) was multiplied by 0.5 mA/cm^2. A pulsed current is used during EMDA; however, direct current is also applicable.

macroscopic staining of the renal pelvis ([2]; with EMDA activation): Intense staining of the renal pelvis
macroscopic staining of the renal pelvis ([2]; without EMDA activation): Faint staining of the renal pelvis
Compound: CN(C)c1ccc2nc3ccc(=[N+](C)C)cc-3sc2c1 [methylene blue]
microscopic penetration of methylene blue into the ureteral wall (frozen section / histopathology) ([1]; control ureter, without EMDA): only patchy staining of the urothelium; also recorded: minimal, patchy staining of the urothelial lining with negligible penetration of methylene blue beyond the urothelium; also recorded: patchy methylene blue staining was seen only on the urothelium with negligible deeper penetration
microscopic penetration of methylene blue into the ureteral wall (frozen section / histopathology) ([1]; experimental ureter, with EMDA, pulsed current 10 mA): could be delivered beyond the urothelium and deeply into the wall of the ureter; also recorded: dense blue staining of the urothelium; also recorded: penetration of methylene blue throughout the wall of the EMDA treated ureter; also recorded: diffuse penetration of methylene blue into the urothelium, lamina propria, muscularis propria, and periureteral tissue
macroscopic staining of the interior surface of the ureter ([1]; with EMDA): intense staining of the experimental ureter
macroscopic staining of the interior surface of the ureter ([1]; without EMDA): minimal staining of the urothelial lining
microscopic staining of urothelium and submucosa of the renal pelvis ([2]; with EMDA activation): Deep blue staining of urothelium and the submucosa of the renal pelvis
tissue injury of the renal pelvis (H&E staining) ([2]; with EMDA activation): normal architecture with no signs of acute injury
microscopic staining of urothelium and submucosa of the renal pelvis ([2]; without EMDA activation): Blue staining of urothelium with less intensity and negligible methylene blue staining the submucosa of the renal pelvis
tissue injury of the renal pelvis (H&E staining) ([2]; without EMDA activation): normal architecture with no evidence of injury
